Source: US7989495B2, “Compositions and methods for inhibiting NF-κB mediated tumorigenicity and adhesion dependent survival of cancer cells” (University of Utah Research Foundation, priority 2002, dated 2011)

How the values were obtained:
Type in all cases: cell-based
[1] = system: HT-29 cells; test: One-hour cell adhesion assay (crystal violet); settings: HT-29 pretreated three days (3 hours elsewhere in the source) with various concentrations
Protocol: The data points represent the average percent of annexin V-positive, propidium iodide-negative cells (of the total cells counted) from triplicate experiments. The error bars represent the standard error of the means. […] The results shown are a graphic representation of individual flow cytometry results expressed as the percentage of cells that were annexin V-positive of those that excluded propidium iodide. […] An immunoblot of the lysates for cleaved PARP was performed. Each lane represents equal total protein concentrations. […] The cells were allowed to adhere to plastic dishes for 1 hour after which they were washed gently in PBS and stained with crystal violet. The crystal violet stained cells were solubilized in deoxycholate and the absorbance detected in a spectrophotometer at 590 nm. The adherent cells were expressed as a fraction of the controls Each data point represents the average of triplicate experiments and the error bars the standard errors of the means.
Even though BAY 11-7085 induced a loss of cell adhesion, it was important to show whether HT-29 cells were actually susceptible to anoikis.

[2] = system: NF-κB (p65) binding to NF-κB consensus oligonucleotides; test: NF-κB binding activity assay (Trans-AM) on lysates of treated HT-29 cells
Protocol: The transiently suspended cells were lysed and allowed to bind to DNA oligonucleotides, containing the NF-κB consensus binding site, that were immobilized to 96-well plates. NF-κB protein bound to the oligonucleotides was detected by an antibody to the p65 subunit that only recognized p65 that is bound to DNA. The positive control was HeLa cells that were stimulated with TNFα A control was performed using excess free NF-κB oligonucleotides (Competitor). […] NF-κB binding activity was determined by the TransAM assay as in FIG. 5A. […] The data shown represent typical results of three separate experiments. […] An immunoblot for COX-2 was performed.
Activation of NF-κB was also determined using the Trans-AM™ assay (Active Motif, Carlsbad, Calif.) per the manufacturer's instructions. (Renard et al., 2001) Briefly, cell monolayers on 60 mm dishes were washed with ice-cold PBS and removed by incubating in trypsin-PBS or scraping. The cells were centrifuged for 10 minutes at 1,000 rpm at 4° C. and resuspended for 10 minutes in 100 μl of 4° C. lysis buffer (20 mM HEPES (pH 7.5), 350 mM NaCl, 20% glycerol, 1% Igepal-CA630, 1 mM MgCl2, 0.5 mM EDTA, 0.1 mM EGTA, 1 μl of 1 M dithiothreitol and 10 μl of protease inhibitor cocktail (proprietary) per ml of lysis buffer). The lysates were centrifuged for 20 minutes at 14,000 g at 4° C. Lysates containing 5 μg of total protein were added to 20 μl of lysis buffer per well in 96-well dishes containing immobilized oligonucleotides corresponding to the NF-κB consensus DNA binding site (5′-GGGACTTTCC-3′) (SEQ ID NO:2). The plate was covered with an adhesive film and incubated for 1 hour at room temperature on a rocker. The wells were then washed three times with 200 μl per well of washing buffer (100 mM phosphate buffer (pH 7.5), 500 mM NaCl, 1% Tween). 100 μl of p65subunit monoclonal antibody (the p65 antibody supplied with the kit only recognizes p65-containing NF-κB heterodimers that are bound to DNA containing the NF-κB consensus binding sequence) was diluted 1:1,000 in 1× antibody binding buffer (4 mM HEPES (pH 7.5), 120 mM KCl, 8% glycerol, 1% bovine serum albumin) and added to each well and incubated for 1 hour at room temperature. The wells were washed with 100 μl of washing buffer three times. 100 μl of horseradish peroxidase-conjugated secondary antibody diluted 1:1,000 in 1× antibody binding buffer was added to each well and incubated for 1 hour at room temperature without agitation. […] 100 μl of stop solution (0.5 M H2SO4) was added to each well after which the absorbance was determined on a plate spectrophotometer at 450 nm. Specificity of binding was determined using 200-fold excess wildtype NF-κB oligonucleotides added at the time the cell lysates were added to the wells. […]

[3] = system: transiently suspended Caco-2 cells; test: Apoptosis (annexin V) of transiently suspended cells allowed to readhere; settings: treated
Protocol: Single cell suspensions were plated at 100,000 cells per well in 24-well plates in media containing DMSO, BAY 11-7082, BAY 11-7085, or MG-132 for 8-24 hours in an incubator. Alternatively, DMSO, BAY 11-7082, BAY 11-7085, or MG-132 were added to cells that were confluent and adherent for several days. The nonadherent cells were aspirated off with the media and spun for 3 minutes at 2,000 rpm in 15 ml polypropylene tubes. The adherent cells were washed twice with PBS, dispersed in trypsin, and spun down for 3 minutes at 2,000 rpm in 15 ml polypropylene tubes. The nonadherent and adherent cells were resuspended in 1× binding buffer (10 mM HEPES/NaOH, pH 7.4, 140 mM NaCl, and 2.5 mM CaCl2) to a final concentration of 10^6 cells/ml. […] 400 μl of binding buffer was added to each tube and the cells were analyzed by flow cytometry immediately. The percent of apoptosis was determined as the percent of annexin V-positive, propidium iodide-negative cells of the total cells counted.
Since trypsin can activate protease-activated receptor-2 in colon cancer cell lines, which then results in increased cell proliferation, (Darmoul et al., 2001) NF-κB activation was determined in adherent and confluent DLD-1, HCT-116, Caco-2 and HT-29 cells that were removed from plastic dishes by trypsin or scraping. […]

## CC(C)(C)c1ccc(S(=O)(=O)/C=C/C#N)cc1 [BAY 11-7085, (2E)-3-[4-(tertiarybutylphenyl)sulfonyl]-2-propenenitrile]
[1]
  inhibition of cell adhesion: significant and rapid inhibition of cell adhesion at high concentrations
[2]; adherent HT-29, increasing concentrations, 8 hours
  constitutive NF-κB activation in adherent cells: relatively unaffected
[2]; adherent colon cancer cells, doses up to 50 μM
  inhibition of constitutive NF-κB activation in adherent cells: could not be inhibited
[2]; transiently suspended HT-29, increasing concentrations, 8 hours
  inhibition of NF-κB activation caused by readhesion: dose-related inhibition of this NF-κB activation
[2]; transiently suspended colon cancer cells, as little as 10 μM
  inhibition of NF-κB activation induced by readhesion: almost totally inhibited
[3]
  BAY 11-7085-induced apoptosis during readhesion: showed a moderate increase
